≈ marks a conversion by molar mass, not a printed value. Calls of active or inactive are those of the source. The calls are words filed in the database; no cut-off is given here.
Experiments:
[1] = Selectivity index, ratio of CC50 for human HepDE19 cells assessed as reduction in cell viability to EC50 for HBV infected in human HepG2.2.15 cells assessed as reduction in HBV DNA replication; assay type: toxicity, cell-based; details: HBV-infected HepG2.2.15 cells (EC50)
[2] = AUC (0 to infinity) in C57BL/6 mouse liver at 5 mg/kg, po administered as single dose measured upto 24 hrs by LC-MS/MS analysis; assay type: ADME, organism-based; parameters: time < 24 hrs, dose 5 mg/kg, route po
[3] = Metabolic stability in mouse liver microsomes assessed as clearance at 1 uM preincubated for 10 mins and measured upto 30 mins in presence of NADPH generating system by LC-MS/MS analysis; assay type: ADME, Microsome; details: time < 40 min
[4] = Ratio of AUC (0 to infinity) in liver to plasma of C57BL/6 mouse liver at 5 mg/kg, po administered as single dose measured upto 24 hrs by LC-MS/MS analysis; assay type: ADME, organism-based; details: read-out: Ratio AUC
[5] = test system: Hepatitis B virus; test: Antiviral activity against HBV infected in human HepG2.2.15 cells assessed as reduction in HBV DNA replication measured after 5 days by qPCR analysis; assay type: functional, organism-based; details: HepG2.2.15, 120 h
[6] = Lyophilization solubility of the compound in phosphate buffer at pH 6.5 incubated for 1 hr under stirring condition and 2 hrs under shaking condition by HPLC-UV analysis; assay type: physicochemical
[7] = Plasma protein binding in mouse assessed as free fraction incubated for 5 hrs by LC-MS/MS analysis; assay type: ADME, cell-free
[8] = Cytotoxicity against human HepDE19 cells assessed as reduction in cell viability measured after 5 days by CCK-8 method; assay type: functional; details: HepDE19, 120 h, time 5 day
[9] = Metabolic stability in human liver microsomes assessed as clearance at 1 uM preincubated for 10 mins and measured upto 30 mins in presence of NADPH generating system by LC-MS/MS analysis; assay type: ADME, Microsome; details: time < 40 min
[10] = Half life in C57BL/6 mouse plasma at 2 mg/kg, iv administered as single dose measured upto 24 hrs by LC-MS/MS analysis; assay type: ADME, organism-based
[11] = Volume of distribution at steady state in C57BL/6 mouse plasma at 2 mg/kg, iv administered as single dose measured upto 24 hrs by LC-MS/MS analysis; assay type: ADME, organism-based; details: read-out: Vdss
[12] = Clearance in C57BL/6 mouse plasma at 2 mg/kg, iv administered as single dose measured upto 24 hrs by LC-MS/MS analysis; assay type: ADME, organism-based
[13] = Cmax in C57BL/6 mouse plasma at 5 mg/kg, po administered as single dose measured upto 24 hrs by LC-MS/MS analysis; assay type: ADME, organism-based; parameters: dose 5 mg/kg, time < 24 hrs, route po
[14] = AUC (0 to infinity) in C57BL/6 mouse plasma at 2 mg/kg, iv administered as single dose measured upto 24 hrs by LC-MS/MS analysis; assay type: ADME, organism-based; parameters: dose 2 mg/kg, time < 24 hrs, route iv
[15] = AUC (0 to infinity) in C57BL/6 mouse plasma at 5 mg/kg, po administered as single dose measured upto 24 hrs by LC-MS/MS analysis; assay type: ADME, organism-based; parameters: time < 24 hrs, dose 5 mg/kg, route po
[16] = Oral bioavailability in C57BL/6 mouse plasma at 5 mg/kg administered as single dose measured upto 24 hrs by LC-MS/MS analysis; assay type: ADME, organism-based
[17] = Ratio of AUC (0 to infinity) in liver to plasma of C57BL/6 mouse liver at 3 mg/kg, po administered as single dose measured upto 24 hrs by LC-MS/MS analysis; assay type: ADME, organism-based; details: read-out: Ratio AUC
[18] = AUC (0 to infinity) in C57BL/6 mouse plasma at 1 mg/kg, iv administered as single dose measured upto 24 hrs by LC-MS/MS analysis; assay type: ADME, organism-based; parameters: dose 1 mg/kg, time < 24 hrs, route iv
[19] = Half life in C57BL/6 mouse plasma at 1 mg/kg, iv administered as single dose measured upto 24 hrs by LC-MS/MS analysis; assay type: ADME, organism-based
[20] = Clearance in C57BL/6 mouse plasma at 1 mg/kg, iv administered as single dose measured upto 24 hrs by LC-MS/MS analysis; assay type: ADME, organism-based
[21] = Oral bioavailability in C57BL/6 mouse plasma at 3 mg/kg administered as single dose measured upto 24 hrs by LC-MS/MS analysis; assay type: ADME, organism-based
[22] = Volume of distribution at steady state in C57BL/6 mouse plasma at 1 mg/kg, iv administered as single dose measured upto 24 hrs by LC-MS/MS analysis; assay type: ADME, organism-based; details: read-out: Vdss
[23] = AUC (0 to infinity) in C57BL/6 mouse liver at 3 mg/kg, po administered as single dose measured upto 24 hrs by LC-MS/MS analysis; assay type: ADME, organism-based; parameters: dose 3 mg/kg, time < 24 hrs, route po
[24] = AUC (0 to infinity) in C57BL/6 mouse plasma at 3 mg/kg, po administered as single dose measured upto 24 hrs by LC-MS/MS analysis; assay type: ADME, organism-based; parameters: time < 24 hrs, dose 3 mg/kg, route po
[25] = Cmax in C57BL/6 mouse plasma at 3 mg/kg, po administered as single dose measured upto 24 hrs by LC-MS/MS analysis; assay type: ADME, organism-based; parameters: time < 24 hrs, dose 3 mg/kg, route po
[26] = test system: Hepatitis B virus; test: In vivo antiviral activity against AAV encapsidated HBV infected in C57BL/6 mouse model assessed as reduction in serum HBV DNA level at 20 mg/kg, BID measured on day 6 by quantitative real-time PCR analysis; assay type: functional, organism-based; details: time 6.0 day
[27] = test system: Hepatitis B virus; test: In vivo antiviral activity against AAV encapsidated HBV infected in C57BL/6 mouse model assessed as log reduction in serum HBV DNA level at 20 mg/kg, BID measured on day 4 by quantitative real-time PCR analysis; assay type: functional; details: time 4 day
[28] = test system: Hepatitis B virus; test: In vivo antiviral activity against AAV encapsidated HBV infected in C57BL/6 mouse model assessed as log reduction in serum HBV DNA level at 20 mg/kg, BID measured on day 2 by quantitative real-time PCR analysis; assay type: functional; details: time 2 day

CLhep predicted at 1 µM [3]	EC50 [5]	solubility at 3 h [6]	CLhep predicted at 1 µM [9]	Structure (SMILES)	selectivity ratio [1]	AUC(0-inf) [2]	Kp at 24 h [4]	fraction unbound at 5 h [7]	CC50 [8]	half-life [10]	Vd [11]	clearance [12]	Cmax [13]	AUC(0-inf) [14]	AUC(0-inf) [15]	bioavailability [16]	further results
29 mL/min/kg	42 nM	430 µg/mL (≈ 1090 µM)	6.5 mL/min/kg	C[C@H]1Cn2ncc(N3CCCC3=O)c2CN1C(=O)Nc1cc(F)c(F)c(F)c1	> 2380	8550 ng·h/mL	3.2	0.18	> 100000 nM	1 h	1 L/kg	13.7 mL/min/kg	1130 ng/mL	2440 ng·h/mL	2640 ng·h/mL	43%	–
56 mL/min/kg	124 nM	< 1 µg/mL	14 mL/min/kg	O=C(Nc1ccc(F)cc1)N1CCn2ncc(-c3ccc(F)cc3)c2C1	443	–	–	–	55000 nM	–	–	–	–	–	–	–	Kp at 24 h [17]: 18.5; AUC(0-inf) [18]: 208 ng·h/mL; half-life [19]: 0.36 h; clearance [20]: 146 mL/min/kg; bioavailability [21]: 44%; Vd [22]: 2.1 L/kg; AUC(0-inf) [23]: 5110 ng·h/mL; AUC(0-inf) [24]: 276 ng·h/mL; Cmax [25]: 407 ng/mL

Structure (SMILES)	CLhep predicted at 1 µM [3]	EC50 [5]	solubility at 3 h [6]	CLhep predicted at 1 µM [9]	selectivity ratio [1]	AUC(0-inf) [2]	Kp at 24 h [4]	fraction unbound at 5 h [7]	CC50 [8]	half-life [10]	Vd [11]	clearance [12]	Cmax [13]	AUC(0-inf) [14]	AUC(0-inf) [15]	bioavailability [16]	further results
C[C@H]1Cn2ncc(N3CCOCC3=O)c2CN1C(=O)Nc1ccc(F)c(Cl)c1	39 mL/min/kg	27 nM	156 µg/mL (≈ 383 µM)	7.1 mL/min/kg	> 3700	10900 ng·h/mL	2.6	0.31	> 100000 nM	2 h	1.4 L/kg	10 mL/min/kg	1330 ng/mL	3520 ng·h/mL	4180 ng·h/mL	48%	Activity [26]: inactive; log(activity) [27]: 0.5; log(activity) [28]: 0.67

From ChEMBL document CHEMBL5370611, “Discovery of 4,5,6,7-Tetrahydropyrazolo[1.5-a]pyrizine Derivatives as Core Protein Allosteric Modulators (CpAMs) for the Inhibition of Hepatitis B Virus” (J Med Chem, 2023)
